Experimental data: the NIST ThermoML archive (doi:10.1021/je050200w)

Assay: xn = mol fraction of the nth substance listed
Conditions: 101 kPa, Liquid

CCCCCCCCCCO [decan-1-ol] + CCCCCCCCO
Conditions | mass density [kg/m3] | viscosity [mPa·s]
283.15 K, x2 = 0 | 836.6 | 22.06
283.15 K, x2 = 0.0995 | 836.1 | 21.14
283.15 K, x2 = 0.1998 | 835.7 | 20.23
283.15 K, x2 = 0.3007 | 835.3 | 19.39
283.15 K, x2 = 0.4001 | 834.9 | 18.46
283.15 K, x2 = 0.4996 | 834.5 | 17.59
283.15 K, x2 = 0.5988 | 834 | 16.69
283.15 K, x2 = 0.6998 | 833.6 | 15.82
283.15 K, x2 = 0.8001 | 833.1 | 15.11
283.15 K, x2 = 0.9 | 832.8 | 14.2
288.15 K, x2 = 0 | 833.3 | 17.99
288.15 K, x2 = 0.0995 | 832.7 | 17.18
288.15 K, x2 = 0.1998 | 832.3 | 16.53
288.15 K, x2 = 0.3007 | 831.9 | 15.64
288.15 K, x2 = 0.4001 | 831.5 | 15.11
288.15 K, x2 = 0.4996 | 831.1 | 14.23
288.15 K, x2 = 0.5988 | 830.6 | 13.71
288.15 K, x2 = 0.6998 | 830.2 | 13.02
288.15 K, x2 = 0.8001 | 829.7 | 12.25
288.15 K, x2 = 0.9 | 829.4 | 11.75
293.15 K, x2 = 0 | 829.9 | 14.39
293.15 K, x2 = 0.0995 | 829.3 | 13.84
293.15 K, x2 = 0.1998 | 828.9 | 13.31
293.15 K, x2 = 0.3007 | 828.5 | 12.67
293.15 K, x2 = 0.4001 | 828.1 | 12.26
293.15 K, x2 = 0.4996 | 827.7 | 11.59
293.15 K, x2 = 0.5988 | 827.2 | 11.05
293.15 K, x2 = 0.6998 | 826.9 | 10.32
293.15 K, x2 = 0.8001 | 826.3 | 9.75
293.15 K, x2 = 0.9 | 825.9 | 9.008
298.15 K, x2 = 0 | 826.5 | 11.74
298.15 K, x2 = 0.0995 | 825.9 | 11.31
298.15 K, x2 = 0.1998 | 825.5 | 10.94
298.15 K, x2 = 0.3007 | 825.1 | 10.53
298.15 K, x2 = 0.4001 | 824.7 | 10.07
298.15 K, x2 = 0.4996 | 824.3 | 9.596
298.15 K, x2 = 0.5988 | 823.8 | 9.244
298.15 K, x2 = 0.6998 | 823.4 | 8.756
298.15 K, x2 = 0.8001 | 822.8 | 8.308
298.15 K, x2 = 0.9 | 822.3 | 7.812
303.15 K, x2 = 0 | 823 | 9.561
303.15 K, x2 = 0.0995 | 822.5 | 9.231
303.15 K, x2 = 0.1998 | 822.1 | 8.924
303.15 K, x2 = 0.3007 | 821.7 | 8.589
303.15 K, x2 = 0.4001 | 821.3 | 8.213
303.15 K, x2 = 0.4996 | 820.8 | 7.898
303.15 K, x2 = 0.5988 | 820.4 | 7.57
303.15 K, x2 = 0.6998 | 820 | 7.259
303.15 K, x2 = 0.8001 | 819.4 | 6.992
303.15 K, x2 = 0.9 | 818.9 | 6.655
308.15 K, x2 = 0 | 819.6 | 8
308.15 K, x2 = 0.0995 | 819.1 | 7.768
308.15 K, x2 = 0.1998 | 818.7 | 7.492
308.15 K, x2 = 0.3007 | 818.3 | 7.211
308.15 K, x2 = 0.4001 | 817.8 | 6.961
308.15 K, x2 = 0.4996 | 817.4 | 6.672
308.15 K, x2 = 0.5988 | 816.9 | 6.389
308.15 K, x2 = 0.6998 | 816.5 | 6.143
308.15 K, x2 = 0.8001 | 815.9 | 5.851
308.15 K, x2 = 0.9 | 815.5 | 5.653
313.15 K, x2 = 0 | 816.3 | 6.831
313.15 K, x2 = 0.0995 | 815.6 | 6.649
313.15 K, x2 = 0.1998 | 815.2 | 6.408
313.15 K, x2 = 0.3007 | 814.8 | 6.189
313.15 K, x2 = 0.4001 | 814.4 | 5.979
313.15 K, x2 = 0.4996 | 813.9 | 5.711
313.15 K, x2 = 0.5988 | 813.5 | 5.513
313.15 K, x2 = 0.6998 | 813 | 5.287
313.15 K, x2 = 0.8001 | 812.4 | 5.057
313.15 K, x2 = 0.9 | 812 | 4.784
